Laboratory results as given in patent US5932217A, “Peptides which inhibit adhesion between leukocytes and endothelial cells” (priority 1994, dated 1999).

Tests used:
[1] = system: human umbilical vein endothelial cells; test: Adherence of neutrophils to cultured activated endothelial cells; type: cell-based
Description: Human umbilical vein endothelial cells (HUVEC, first passage, Clonetics, San Diego, Calif.) were subcultured at confluence into Terasaki tissue culture wells. After 24 hours, confluent monolayers were used for adherence assays. Monolayers were stimulated with 10 ng/ml TNF alpha (Boehringer Mannheim, Indianapolis, Ind.) at 37° C. for four hours. 30 μl of human neutrophils (10^6 /ml) were labeled with fluorescein by the method of Lo et al. (1991), J. Exp. Med. 173 1493-1500, and preincubated for 15 minutes at 37° C. with 20 μl of peptides (0.5 mM in HAP) or HAP (phosphate buffered saline containing 0.5 mg/ml human serum albumin, 3 mM glucose, and 0.3 U/ml aprotinin) as a control buffer. For some experiments, endothelial cells ere pretreated from 10 minutes with Factor X or antibodies against Factor X receptor (EPR-1; Altieri et al. (1990), J. Immunol. 145, 246-253) 12H1 and 9D4 (obtained from Dr. D. Altieri, Scripps Research Institute, LaJolla, Calif.) and then washed. Neutrophils were allowed to adhere to the monolayer for 15 mins. at 37° C. and unbound cells were removed by submersion of the plate in PBS buffer. The number of adherent neutrophils was counted in a 40× microscope field and expressed as a percentage of adherence in control wells with neutrophils treated with HAP buffer alone. The mAb IB4 against CD18 (50 μg/ml; Merck Inc., Rahway, N.J.) served as a positive control.
The ability of FHA peptides and anti-CD18 or anti-Factor X receptor antibodies to interact cooperatively to inhibit neutrophil adherence to endothelial cells was assessed by measuring neutrophil adherence to endothelial cells in the presence of antibody as well as antibody plus peptide. Anti-CD18 mAb IB4 was added to leukocytes at 10 μg/ml 10 min before the assay. Anti-Factor X receptor mAb 12H1 (10 μl of ascites) or 9D4 (10 μg/ml) were added to the endothelial cell monolayers 10 min before the assay. The peptides were added at 5 μg/ml. The results are shown in Table 8 where the numerical values are in % of control binding.
The procedures for determining the neutrophil adherence to cultured endothelial cells and the transendothelial migration of neutrophils were identical with those of Example 9. Control values were the same as those shown in Example 9.

THP-1 cells = test: Generation of Factor Xa by monocytes; type: cell-based; conditions: peptides 0.5 mM
Description: Factor Xa generation was determined by a modification of the method of Miletich et al. (1978), J. Biol. Chem. 253: 6908-6916. THP-1 cells (ATCC; 3×10^7 /ml) resuspended in RPMI 1640 (Bio Whittaker, Walkersville, Md.) were incubated with 100 μM ADP (Sigma), 2.5 mM CaCl2, 1 or 5 μg/ml Factor X (Hematologic Technologies Inc.) and 0.5 mM peptides at room temperature. After 20 minutes, 100 μl of the reaction mixture was transferred to 37° C. and supplemented with 100 μl of bovine factor VII- and Factor X-deficient plasma (Sigma). Coagulation was initiated by adding 100 μl of 25 mM CaCl2 and the clotting time was determined. Factor Xa procoagulant activity (ng/ml) was calculated by means of a standard curve constructed by serial concentrations of Factor Xa (Hematologic Technologies Inc.) from 50 to 250 ng/ml.

[2] = system: rats inoculated intracisternally with Haemophilus influenzae type b lipooligosaccharide; test: Rat meningitis model (H. influenzae LOS); type: in vivo; conditions: for Leukocytosis: Experiment #3, 600 nmol i.v., CSF 4 hours after LOS
Description: The experiments were performed according to established protocols (Wispelway et al., 1988, J. Clin. Invest., 82: 1339-1346). Purified Haemophilus influenzae type b strain DL42 lipooligosaccharide (LOS) was prepared for inoculation by sonication for 30 minutes, dilution to the desired concentration (20 ng/50 μl) in normal saline or PBS, and sonication for an additional 15 to 30 minutes just prior to use.
Briefly, anesthetized female Wistar rats were placed under a micromanipulator and inoculated intracisternally with a 25 gauge needle. After removal of 50 μl of CSF (without visible blood contamination), rats were inoculated intracisternally with 50 μl (20 ng) of LOS using a 1 ml syringe with a 25 gauge needle. Ten to fifteen minutes after inoculation with LOS, the rats were treated by intravenous administration of the test substance: a solution of an FHA peptide in PBS, a solution of a control peptide in PBS, or an equal volume of PBS alone.
Three hours after LOS inoculation, 5 μCi of ^125 I-radiolabelled albumin in 50 μl normal saline was administered intravenously. One hour later, CSF was collected via intracisternal puncture and blood samples were collected via intracardiac puncture. CSF leukocytosis was determined by manually counting white blood cells using a hemacytometer, and blood-brain barrier permeability was determined as the percent of radioactivity in whole blood that was present in the CSF. Blood samples were obtained immediately prior to inoculation, immediately prior to treatment, and at 4 hours post-inoculation for determination of peripheral white blood cell concentrations.

[3] = system: Recognition of C3bi by 12.1F9; test: Peptide inhibition of recognition of C3bi by 12.1F9; type: binding

Substance: Ac-ETKEVDG-NH2 [Acetyl/Amide-FHA II]
- inhibition of neutrophil adherence to stimulated HUVEC, comparison in words ([1]; peptides 0.5 mM, FIG. 17): significantly enhanced
- Clotting time (THP-1 cells): 40.0 ± 3.0 s
- Factor Xa (THP-1 cells; from standard curve): 28.5 ng/mL
- BBB permeability ([2]; Experiment #3, 600 nmol): 6.00 ± 5.14%
- Leukocytosis [2]: approximately 10,000 cells/ml
- Leukocytosis ([2]; listed as ac/am FHA II): 10,500 ± 8523 cells/ml
- neutropenia ([2]; peripheral white blood cells): No neutropenia was observed
- Inhibition of blood-brain barrier permeability ([2]; rat, in vivo): not observed

Substance: Filamentous hemagglutinin [native FHA]
- concentration at which loss of activity (≤20% inhibition) occurred [1]: 10^-3 μM
- maximal inhibition of neutrophil attachment ([1]; FIG. 25B): ~ 50%
- inhibition of adherence of human neutrophils to cultured endothelial cells ([1]; Native FHA 50 ug/ml (0.2 uM), FHA peptide C 1 mg/ml (0.2 mM)): 51±7%
- reduction of neutrophil adherence to stimulated HUVEC ([1]; native FHA 25 μg/ml=0.3 μM, mAb IB4 50 μg/ml): 51±8%
- block of binding of 12.1F9 to C3bi [3]: blocked binding almost completely
- Adherence index ([3]; peptides 50 μg/ml, normalized to a control value of 100): 16 ± 16
